Laboratory results taken from patent publication US20060069132A1, “Azolecarboxamide herbicides” (priority 2004, published 2006).

How the values were obtained:
barnyardgrass [1] = assay: Test A pre-/postemergence herbicide test; format: in vivo, Echinochloa crus-galli
How it was run: (§1)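 Both application timings were run together: directed soil spray over freshly planted seeds in sandy loam, and runoff spray onto 2–10 cm seedlings. Evaluation after ~10 days in greenhouse used a 0–100 visual scale versus untreated controls.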

large crabgrass [2] = assay: Test B pre-/postemergence herbicide test; format: in vivo, Digitaria sanguinalis; settings: for Crabgrass, Large plant response rating: postemergence
How it was run: (§2)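 Greenhouse pot assay with simultaneous preemergence (treated seed) and postemergence (2–18 cm seedlings) applications of surfactant-containing, non-phytotoxic solvent formulations. Response scored visually 13–15 days later on a 0–100 scale, 100 meaning complete control.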

barnyardgrass [3] = assay: Test B flooded paddy test; format: in vivo, Echinochloa crus-galli; settings: 1000 g ai/ha, scale 0 to 100 (0 no effect, 100 complete control)
How it was run: (§3)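 Treated at 2-leaf (paddy) or 1–4-leaf, 2–18 cm (postemergence); greenhouse 13–15 d; visual score vs control, 0 none to 100 complete control; dash = not tested.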

pigweed = assay: Test B pre-/postemergence herbicide test; format: in vivo, Amaranthus retroflexus; settings: for Pigweed plant response rating: postemergence
How it was run: as §2

ducksalad = assay: Test B flooded paddy test; format: in vivo, Heteranthera limosa; settings: 1000 g ai/ha, scale 0 to 100 (0 no effect, 100 complete control)
How it was run: as §3

redroot pigweed = assay: Test A pre-/postemergence herbicide test; format: in vivo, Amaranthus retroflexus
How it was run: as §1

cocklebur = assay: Test B pre-/postemergence herbicide test; format: in vivo, Xanthium strumarium; settings: for Cocklebur plant response rating: postemergence
How it was run: (§4)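 Herbicidal effect was judged by eye on a 0–100 scale after plants stood 13 to 15 days in the greenhouse following pre- or postemergence treatment with surfactant-containing formulations.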

velvetleaf [4] = assay: Test A pre-/postemergence herbicide test; format: in vivo, Abutilon theophrasti
How it was run: as §1

rice [5] = assay: Test B flooded paddy test; format: in vivo, Oryza sativa; settings: 1000 g ai/ha, scale 0 to 100 (0 no effect, 100 complete control)
How it was run: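 Greenhouse test; postemergence application to plants at 1–4 leaves (2–18 cm); paddy species at 2 leaves; evaluated visually vs controls at 13–15 days; scale 0–100 (100 = complete control).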

[6] = tested on: small flower umbrella sedge; assay: Test B flooded paddy test; format: in vivo, Cyperus difformis; settings: 1000 g ai/ha, scale 0 to 100 (0 no effect, 100 complete control)
How it was run: as §3

wheat = assay: Test B postemergence herbicide test; format: in vivo, Triticum aestivum; design: key to Wheat plant response rating: 0 = no effect, 100 = complete control; settings: postemergence
How it was run: (§5)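 Formulated test chemicals went onto postemergence plants measuring 2 to 18 cm, at one to four leaves. For the paddy assay, species had reached two leaves. Scoring took place 13–15 days later by eye, relative to untreated plants, using 0 for no effect up to 100 for full control.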

corn = assay: Test B pre-/postemergence herbicide test; format: in vivo, Zea mays; settings: for Corn plant response rating: postemergence
How it was run: as §2

large crabgrass [7] = assay: Test A pre-/postemergence herbicide test; format: in vivo, Digitaria sanguinalis
How it was run: as §1

wild oat = assay: Test B postemergence herbicide test; format: in vivo, Avena fatua; settings: postemergence
How it was run: as §5

giant foxtail [8] = assay: Test B pre-/postemergence herbicide test; format: in vivo, Setaria faberi; settings: for Foxtail, Giant plant response rating: postemergence
How it was run: as §2

barnyardgrass [9] = assay: Test B pre-/postemergence herbicide test; format: in vivo, Echinochloa crus-galli; settings: for Barnyardgrass plant response rating: postemergence
How it was run: as §4

rice [10] = assay: Test B pre-/postemergence herbicide test; format: in vivo, Oryza sativa; settings: 0 = no effect, 100 = complete control, preemergence
How it was run: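 Species tested were Echinochloa crus-galli, Ipomoea coccinea, Xanthium strumarium and Oryza sativa, treated both before emergence and at the 1- to 4-leaf stage; rice and barnyardgrass were also tested under flooding at 2 leaves. Greenhouse incubation lasted 13–15 days before visual 0–100 scoring.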

Surinam grass = assay: Test B pre-/postemergence herbicide test; format: in vivo, Urochloa decumbens; settings: for Surinam Grass plant response rating: postemergence
How it was run: as §2

morningglory [11] = assay: Test A pre-/postemergence herbicide test; format: in vivo, Ipomoea spp.
How it was run: as §1

velvetleaf [12] = assay: Test B pre-/postemergence herbicide test; format: in vivo, Abutilon theophrasti; settings: for Velvetleaf plant response rating: postemergence
How it was run: as §2

giant foxtail [13] = assay: Test A pre-/postemergence herbicide test; format: in vivo, Setaria faberi
How it was run: as §1

morningglory [14] = assay: Test B pre-/postemergence herbicide test; format: in vivo, Ipomoea coccinea; settings: for Morningglory plant response rating: postemergence
How it was run: as §4

blackgrass = assay: Test B postemergence herbicide test; format: in vivo, Alopecurus myosuroides; settings: postemergence
How it was run: as §3

lambsquarters = assay: Test B pre-/postemergence herbicide test; format: in vivo, Chenopodium album; settings: for Lambsquarters plant response rating: postemergence
How it was run: as §2

[15] = Postemergence, 500 g ai/ha, 0 to 100 scale, 0 no effect, 100 complete control
[16] = Postemergence, 2000 g ai/ha, 0 to 100 scale, 0 no effect, 100 complete control
[17] = Preemergence, 2000 g ai/ha, visual rating, 0 to 100 scale (0 no effect, 100 complete control)
[18] = preemergence, 500 g ai/ha, visual injury, 0 to 100 scale (0 no effect, 100 complete control)
[19] = 125 g ai/ha, 0 = no effect, 100 = complete control, preemergence
[20] = 125 g ai/ha, visual rating, scale 0 (no effect) to 100 (complete control)
[21] = 500 g ai/ha, visual rating, 0 = no effect, 100 = complete control, preemergence
[22] = 500 g ai/ha, scale 0 to 100, 0 is no effect, 100 is complete control

Structure (SMILES): CCn1nc(C(C)(C)C)cc1C(=O)Nc1cncc(C(=O)NCC(F)(F)F)n1 [Compound 291]
- Barnyardgrass plant response rating (barnyardgrass [1]; [15]): 25
- Plant response rating, Barnyardgrass (barnyardgrass [1]; [16]): 40
- Barnyardgrass plant response rating (barnyardgrass [1]; [17]): 25
- Barnyardgrass plant response rating (barnyardgrass [1]; [18]): 0
- Crabgrass, Large plant response rating (0 to 100 scale) (large crabgrass [2]; [19]): 0
- Crabgrass, Large plant response rating (large crabgrass [2]; [20]): 0
- Plant response rating, Crabgrass, Large (large crabgrass [2]; [21]): 0
- Crabgrass, Large plant response rating (large crabgrass [2]; [22]): 30
- Barnyardgrass plant response rating (barnyardgrass [3]): 0
- Pigweed plant response rating (0 to 100 scale) (pigweed; [19]): 0
- Pigweed plant response rating (pigweed; [20]): 0
- Plant response rating, Pigweed (pigweed; [21]): 0
- Pigweed plant response rating (pigweed; [22]): 30
- Ducksalad plant response rating (ducksalad): 0
- Pigweed plant response rating (redroot pigweed; [15]): 20
- Plant response rating, Pigweed (redroot pigweed; [16]): 30
- Pigweed plant response rating (redroot pigweed; [17]): 35
- Pigweed plant response rating (redroot pigweed; [18]): 0
- Cocklebur plant response rating (0 to 100 scale) (cocklebur; [19]): 0
- Cocklebur plant response rating (cocklebur; [20]): 0
- Plant response rating, Cocklebur (cocklebur; [21]): 0
- Cocklebur plant response rating (cocklebur; [22]): 10
- Velvetleaf plant response rating (velvetleaf [4]; [15]): 5
- Plant response rating, Velvetleaf (velvetleaf [4]; [16]): 10
- Velvetleaf plant response rating (velvetleaf [4]; [17]): 0
- Velvetleaf plant response rating (velvetleaf [4]; [18]): 0
- Rice plant response rating (rice [5]): 0
- Sedge, Umbrella plant response rating [6]: 0
- Wheat plant response rating (wheat; [20]): 0
- Wheat plant response rating (wheat; [22]): 0
- Corn plant response rating (0 to 100 scale) (corn; [19]): 0
- Corn plant response rating (corn; [20]): 0
- Plant response rating, Corn (corn; [21]): 0
- Corn plant response rating (corn; [22]): 60
- Crabgrass, Large plant response rating (large crabgrass [7]; [15]): 5
- Plant response rating, Crabgrass, Large (large crabgrass [7]; [16]): 25
- Crabgrass, Large plant response rating (large crabgrass [7]; [17]): 10
- Crabgrass, Large plant response rating (large crabgrass [7]; [18]): 0
- Oat, Wild plant response rating (wild oat; [20]): 10
- Oat, Wild plant response rating (wild oat; [22]): 20
- Foxtail, Giant plant response rating (0 to 100 scale) (giant foxtail [8]; [19]): 0
- Foxtail, Giant plant response rating (giant foxtail [8]; [20]): 10
- Plant response rating, Foxtail, Giant (giant foxtail [8]; [21]): 0
- Foxtail, Giant plant response rating (giant foxtail [8]; [22]): 80
- Barnyardgrass plant response rating (0 to 100 scale) (barnyardgrass [9]; [19]): 0
- Barnyardgrass plant response rating (barnyardgrass [9]; [20]): 0
- Plant response rating, Barnyardgrass (barnyardgrass [9]; [21]): 0
- Barnyardgrass plant response rating (barnyardgrass [9]; [22]): 30
- Rice plant response rating (0 to 100 scale) (rice [10]; 125 g ai/ha): 0
- Plant response rating, Rice (rice [10]; 500 g ai/ha, visual rating): 0
- Surinam Grass plant response rating (0 to 100 scale) (Surinam grass; [19]): 0
- Surinam Grass plant response rating (Surinam grass; [20]): 0
- Plant response rating, Surinam Grass (Surinam grass; [21]): 0
- Surinam Grass plant response rating (Surinam grass; [22]): 60
- Morningglory plant response rating (morningglory [11]; [15]): 5
- Plant response rating, Morningglory (morningglory [11]; [16]): 10
- Morningglory plant response rating (morningglory [11]; [17]): 0
- Morningglory plant response rating (morningglory [11]; [18]): 0
- Velvetleaf plant response rating (velvetleaf [12]; [20]): 0
- Plant response rating, Velvetleaf (velvetleaf [12]; [21]): 0
- Velvetleaf plant response rating (velvetleaf [12]; [22]): 60
- Foxtail, Giant plant response rating (giant foxtail [13]; [15]): 30
- Plant response rating, Foxtail, Giant (giant foxtail [13]; [16]): 75
- Foxtail, Giant plant response rating (giant foxtail [13]; [17]): 0
- Foxtail, Giant plant response rating (giant foxtail [13]; [18]): 0
- Morningglory plant response rating (0 to 100 scale) (morningglory [14]; [19]): 0
- Morningglory plant response rating (morningglory [14]; [20]): 0
- Plant response rating, Morningglory (morningglory [14]; [21]): 0
- Morningglory plant response rating (morningglory [14]; [22]): 40
- Blackgrass plant response rating (blackgrass; [20]): 0
- Blackgrass plant response rating (blackgrass; [22]): 10
- Lambsquarters plant response rating (0 to 100 scale) (lambsquarters; [19]): 0
- Lambsquarters plant response rating (lambsquarters; [20]): 20
- Plant response rating, Lambsquarters (lambsquarters; [21]): 0
- Lambsquarters plant response rating (lambsquarters; [22]): 60
